Laboratory results taken from ChEMBL document CHEMBL1201862, “PubChem BioAssay data set” (2004).
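All cell lines were grown in 96-well plates and treated with compound for 48 hours. The concentration for 50% growth inhibition is given as GI50.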 Calls of active or inactive are those of the source. Cut-off read from the data, not from the text of the source: active = GI50 up to about 1.1 µM and inactive = higher.

Experiments:
Test in all cases: NCI anticancer screen, dose series, 48 h
M14 = system: M14
UACC-62 = system: UACC-62
SK-OV-3 = system: SK-OV-3
SF-539 = system: SF-539
SK-MEL-5 = system: SK-MEL-5
OVCAR-5 = system: OVCAR-5
NCI-H23 = system: NCI-H23
LOX IMVI = system: LOX IMVI
HT-29 = system: HT-29
MDA-N = system: MDA-N
Malme-3M = system: Malme-3M
BT-549 = system: BT-549
HCT-15 = system: HCT-15
EKVX = system: EKVX
NCI-H460 = system: NCI-H460
UO-31 = system: UO-31
U-251 = system: U-251
SR = system: SR
SF-295 = system: SF-295
HCT-116 = system: HCT-116
RPMI-8226 = system: RPMI-8226
T47D = system: T47D
Hs-578T = system: Hs-578T
K562 = system: K562
TK-10 = system: TK-10
MOLT-4 = system: MOLT-4
CCRF-CEM = system: CCRF-CEM
MCF7 = system: MCF7
SK-MEL-28 = system: SK-MEL-28
HOP-92 = system: HOP-92
CAKI-1 = system: CAKI-1
OVCAR-4 = system: OVCAR-4
NCI/ADR-RES = system: NCI/ADR-RES
KM12 = system: KM12
MDA-MB-231 = system: MDA-MB-231
SW-620 = system: SW-620
UACC-257 = system: UACC-257
HCC 2998 = system: HCC 2998
786-0 = system: 786-0
A549 = system: A549
ACHN = system: ACHN
MDA-MB-435 = system: MDA-MB-435
SN12C = system: SN12C
NCI-H226 = system: NCI-H226
IGROV-1 = system: IGROV-1
DU-145 = system: DU-145
HL-60 = system: HL-60
RXF 393 = system: RXF 393
SNB-75 = system: SNB-75
OVCAR-3 = system: OVCAR-3
OVCAR-8 = system: OVCAR-8
NCI-H522 = system: NCI-H522
A498 = system: A498
HOP-62 = system: HOP-62
SK-MEL-2 = system: SK-MEL-2
PC-3 = system: PC-3
COLO 205 = system: COLO 205
SF-268 = system: SF-268
SNB-19 = system: SNB-19
DLD-1 = system: DLD-1
KM-20L2 = system: KM-20L2
M19-MEL = system: M19-MEL

Measured: GI50

O=C1N=NC(=O)N1c1cc(C(F)(F)F)cc(C(F)(F)F)c1
3.2 µM: HCT-15
inactive: M14 5.7 µM | UACC-62 5.65 µM | SK-OV-3 3.81 µM | SF-539 4.86 µM | SK-MEL-5 2.61 µM | OVCAR-5 4.09 µM | NCI-H23 2.35 µM | LOX IMVI 3.27 µM | HT-29 2.73 µM | MDA-N 4.17 µM | Malme-3M 3.83 µM | BT-549 3.61 µM | EKVX 3.24 µM | NCI-H460 3.23 µM | UO-31 2.44 µM | U-251 3.12 µM | SR 4.69 µM | SF-295 2.78 µM | HCT-116 3.24 µM | RPMI-8226 2.89 µM | T47D 3.61 µM | Hs-578T 3.93 µM | K562 3.37 µM | TK-10 3.68 µM | MOLT-4 3.37 µM | CCRF-CEM 3.69 µM | MCF7 3.35 µM | SK-MEL-28 10.6 µM | HOP-92 2.75 µM | CAKI-1 2.94 µM | OVCAR-4 4.21 µM | NCI/ADR-RES 2.97 µM | KM12 3.93 µM | MDA-MB-231 2.38 µM | SW-620 5.46 µM | UACC-257 3.16 µM | HCC 2998 3.45 µM | 786-0 4.68 µM | A549 2.93 µM | ACHN 4.04 µM | MDA-MB-435 4.38 µM | SN12C 3.75 µM | NCI-H226 2.55 µM | IGROV-1 3.83 µM | DU-145 5.28 µM | HL-60 3.61 µM | RXF 393 3.29 µM | SNB-75 2.95 µM | OVCAR-3 2.44 µM | OVCAR-8 3.38 µM | NCI-H522 2.07 µM | A498 5.4 µM | HOP-62 4.17 µM | SK-MEL-2 2.2 µM | PC-3 2.65 µM | COLO 205 1.85 µM | SF-268 3.7 µM | SNB-19 4.03 µM

C/C(=N\NC(=O)c1cccnc1)c1cccc(/C(C)=N/NC(=O)c2cccnc2)n1
active: SF-268 0.867 µM
inactive: M14 2.85 µM | UACC-62 2.04 µM | SK-OV-3 4.14 µM | SF-539 2.36 µM | OVCAR-5 2.08 µM | NCI-H23 7.4 µM | LOX IMVI 2 µM | EKVX 3.42 µM | NCI-H460 3.41 µM | UO-31 3.81 µM | U-251 2.06 µM | DLD-1 1.95 µM | SF-295 4.15 µM | TK-10 4.67 µM | KM-20L2 2.21 µM | KM12 4.85 µM | SW-620 2.78 µM | UACC-257 3.06 µM | A549 2.99 µM | ACHN 1.48 µM | M19-MEL 13.2 µM | SN12C 4.81 µM | OVCAR-8 2.43 µM | SNB-19 3.56 µM
3.99 µM: HCT-15
